These results are taken from patent US20250002840A1, “MANUFACTURING METHOD OF MIXED POWDER, MIXED POWDER, POWDER, AND POWDER MEDIUM” (FUJIFILM Corporation, priority 2022, published 2025).

The structures appear in SMILES notation.

Data set [1] in a line: Overall evaluation based on solubility and liquid property. The data set is classed as physicochemical. As to conditions: based on the evaluation results of solubility and liquid property.
Data set [2] can be described thus: Liquid property (pH) of the solution obtained in the solubility evaluation. The data set is classed as physicochemical. As for the experimental part: A pH of the solution obtained in the evaluation of solubility was evaluated. Liquid property was evaluated according to the following evaluation standard.

In the case of `N[C@@H](CSSC[C@H](N)C(=O)O)C(=O)O` [Comparative Example 1, L-cystine], the Overall evaluation entry in data set [1] is given as “E (the solution was still turbid even after 1 hour, and/or the pH was other than neutral)”. The Liquid property entry in data set [2] is on record as “Neutral (pH of 6.0 to 8.5)”.
